According to patent publication US20090054346A1, “ELASTIN PRODUCTION-ENHANCING AGENTS” (Rohto Pharmaceutical Co., Ltd., priority 2006, published 2009):
Peptide text beside a SMILES is read from it.

Tested on: Normal human skin-derived fibroblasts (CRL-1836)
Experiment: Microscopic observation of fibroblasts after 72 hours of culture (cell count, morphology)
Assay type: cell-based
Details: 1000 μg/ml peptide
Procedure: Normal human skin-derived fibroblasts (CRL-1836; ATCC) were cultured in 60-mm dishes. More specifically, the cells were plated in dishes at a density of 2500 cells/cm^2, and cultured until subconfluent at 37° C. under 5% carbon dioxide gas and 95% air for 6 days. 3 ml of Dulbecco's Modified Eagle Medium (DMEM) supplemented with […] fetal bovine serum (FBS) was used in the culture. Then, the culture medium was changed to the same medium without FBS (namely, serum-free medium), and the culture was continued for 1 day. Next, the culture medium was changed to 3 ml of serum-free medium supplemented with 1000 μg/ml of the LEHA peptide prepared in Example 1, and the cells were cultured for 72 hours. Meanwhile, the culture in which the medium was changed to 3 ml of serum-free culture medium without the LEHA peptide was used as a control.
After 72 hours of culture, the cells in the dishes containing the LEHA peptide and the control dishes were observed under a microscope.

cell counts versus control dishes: not significantly different
SMILES: CC(C)C[C@H](N)C(=O)N[C@@H](CCC(=O)O)C(=O)N[C@@H](Cc1c[nH]cn1)C(=O)N[C@@H](C)C(=O)O [LEHA peptide, Leu-Glu-His-Ala] (H-LEHA-OH)
morphological abnormality of the cells: no morphological abnormality was observed
